Test results reported in PMC7013532, “Scenarios of Genes-to-Terpenoids Network Led to the Identification of a Novel α/β-Farnesene/β-Ocimene Synthase in Camellia sinensis” (International Journal of Molecular Sciences, 2020).

Target: TPS2 (Camellia sinensis, UniProt A0A3G3IRF8)
Experiment: SPME GC-MS product analysis
Type: biochemical
Details: pH 7.5, 50 mM Tris-HCl, 10 mM MgCl2, 5 mM DTT, 30 °C

Chain of TPS2 (A0A3G3IRF8 entry or part of it): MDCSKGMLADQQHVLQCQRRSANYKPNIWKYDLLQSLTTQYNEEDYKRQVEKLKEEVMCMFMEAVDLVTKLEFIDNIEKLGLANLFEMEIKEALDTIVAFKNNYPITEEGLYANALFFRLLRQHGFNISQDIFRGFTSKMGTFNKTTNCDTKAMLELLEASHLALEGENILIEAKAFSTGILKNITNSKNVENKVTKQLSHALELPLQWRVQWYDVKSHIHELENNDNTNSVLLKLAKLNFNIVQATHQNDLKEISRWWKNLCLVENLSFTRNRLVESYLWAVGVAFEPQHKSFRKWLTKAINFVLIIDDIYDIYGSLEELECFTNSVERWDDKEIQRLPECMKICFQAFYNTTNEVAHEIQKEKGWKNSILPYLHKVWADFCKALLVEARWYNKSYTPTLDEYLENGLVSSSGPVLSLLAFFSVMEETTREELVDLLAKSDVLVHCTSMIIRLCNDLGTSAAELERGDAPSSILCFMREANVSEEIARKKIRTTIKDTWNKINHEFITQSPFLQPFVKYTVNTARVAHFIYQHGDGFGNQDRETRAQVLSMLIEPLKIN

For CC(C)=CCC/C(C)=C/CC/C(C)=C/COP(=O)(O)OP(=O)(O)O [FPP], which “SPME GC-MS product analysis” value (products beta-farnesene (main) and alpha-farnesene) is on record?
The value was “The main product produced by TPS2 using FPP as a substrate was β-farnesene”.

CC(C)=CCC/C(C)=C/COP(=O)(O)OP(=O)(O)O [GPP] was tested. Which “SPME GC-MS product analysis” value (product beta-ocimene) did it give?
The value was “β-ocimene is the resulting product when using GPP is used as the substrate”.
